pIC50: −log10 of the molar value. Like-named read-outs stand apart in the source and are kept apart here. Marks after values point to notes of the source that are not given here.
Legend:
[1] = In vitro nitrogen monoxide release (Griess reagent); conditions: DMSO/water 7/3, overnight, cadmium
Description: Due to their poor aqueous solubility, compounds 1, 3-7 and 9 were dissolved in 7/3 (v/v) mixture of DMSO/water at various concentrations and incubated overnight at room temperature in the presence of cadmium. S-nitroso-N-acetylpenicillamine (SNAP) was dissolved either in DMSO/water 7/3 or in water and treated as above.
Aliquots were taken from each sample and added to an equal volume of N-naphthylaminoethylamine (0.2%) and sulfanilamide (2%) solution in 3 N hydrochloric acid (Griess reagent). Appropriate sodium nitrite solutions in the same DMSO/water mixture were used for the construction of the standard curve and values were identical to those obtained with aqueous solutions. Nitric oxide release was estimated spectrophotometrically (540 nm).

hyperlipidaemic rats = test: Triton WR1339 (tyloxapol) induced hyperlipidaemia in rats; assay type: in vivo, Wistar rats; conditions: Rattus norvegicus, ip, 24 h, 150 μmol/kg i.p., tyloxapol 200 mg/kg i.p., plasma after 24 h
From the text: The pleiotropic effects of statins, used as hypolipidaemic drugs, include antioxidant ability and direct increase of eNOS activity, in addition to inhibition of 3-hydroxy-3-methylglutaryl coenzyme A (HMG-CoA) reductase. […] The systemic administration of Triton-WR1339 (tyloxapol) to rats induces a biphasic elevation of plasma cholesterol, atherogenic VLDL cholesterol and LDL cholesterol, as well as triglyceride levels. […] Agents shown to be active in phase I are considered to interfere with cholesterol biosynthesis.
κ-Carrageenan and lipoxygenase type I-B from soybean were purchased from Sigma (St. Louis, MO, U.S.A.). For the in vivo experiments, Wistar rats (180–220 g, 3–4 months old) were kept in the Centre of the School of Veterinary Medicine (EL54 BIO42), Aristotelian University of Thessaloniki, which is registered by the official state veterinary authorities (presidential degree 56/2013, in harmonization with the European Directive 2010/63/EEC). The experimental protocols were approved by the Animal Ethics Committee of the Prefecture of Central Macedonia (no. 270079/2500).
Hyperlipidaemia was induced by the i.p. administration of Triton WR 1339 (200 mg/kg) to rats. […] Blood was taken from the aorta after 24 h, for the determination of plasma total cholesterol, LDL-cholesterol and triglyceride concentrations, using commercial kits.

soybean lipoxygenase 1-B = target: T1, soybean lipoxygenase 1-B (Glycine max, UniProt P08170); test: In vitro soybean lipoxygenase inhibition, linoleate as substrate; assay type: biochemical; conditions: sodium linoleate 100 μM; after 7 min of incubation; pH 9.0, 28 °C
T1 construct: purchased Sigma (St. Louis, MO, U.S.A.)
T1 sequence (P08170 1-839): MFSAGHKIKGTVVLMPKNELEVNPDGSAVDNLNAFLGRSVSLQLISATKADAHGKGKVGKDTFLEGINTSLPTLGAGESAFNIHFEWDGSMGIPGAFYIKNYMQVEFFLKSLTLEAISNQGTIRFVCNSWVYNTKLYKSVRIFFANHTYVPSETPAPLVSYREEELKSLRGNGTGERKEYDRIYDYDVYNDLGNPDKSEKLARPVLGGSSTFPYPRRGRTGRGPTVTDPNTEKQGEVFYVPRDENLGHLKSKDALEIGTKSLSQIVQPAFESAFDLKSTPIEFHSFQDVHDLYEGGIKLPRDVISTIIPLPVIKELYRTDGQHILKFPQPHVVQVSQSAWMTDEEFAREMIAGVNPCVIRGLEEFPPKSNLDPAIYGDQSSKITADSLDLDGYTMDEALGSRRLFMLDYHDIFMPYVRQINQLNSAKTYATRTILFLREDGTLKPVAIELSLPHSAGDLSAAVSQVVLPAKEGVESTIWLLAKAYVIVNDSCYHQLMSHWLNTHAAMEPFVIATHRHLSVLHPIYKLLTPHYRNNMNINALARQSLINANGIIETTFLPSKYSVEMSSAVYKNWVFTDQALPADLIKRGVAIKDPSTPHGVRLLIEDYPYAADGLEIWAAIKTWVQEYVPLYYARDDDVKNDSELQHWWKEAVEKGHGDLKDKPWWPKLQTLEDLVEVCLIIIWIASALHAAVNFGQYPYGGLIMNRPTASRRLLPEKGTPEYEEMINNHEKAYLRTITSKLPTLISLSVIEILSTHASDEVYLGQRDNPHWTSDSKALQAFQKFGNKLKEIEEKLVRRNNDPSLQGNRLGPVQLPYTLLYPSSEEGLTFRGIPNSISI
Description: The reaction mixture contained the examined compounds (in absolute ethanol, 1–300 μM), soybean lipoxygenase (in saline, 250 u/mL) and sodium linoleate (100 μM), in Tris–HCl buffer, pH 9.0. The reaction was monitored for 7 min at 28 °C, recording the absorbance at 234 nm. […]

[2] = system: carrageenan-induced rat paw oedema; test: Carrageenan-induced rat paw oedema; assay type: in vivo, Wistar rats; conditions: 0.15 mmol/kg i.p., oedema after 3.5 h, vs carrageenan-only controls; for inhibition in vivo at 150 µmol/kg: Rattus norvegicus, ip, read-out: % Oedema Reduction
Description: The carrageenan-induced paw oedema is a well-known and widely used model of acute inflammation. The response to carrageenan inflammation may be divided into three phases. In the first phase (after 1.5 h), histamine and serotonin are released, the second phase (1.5–2.5 h after carrageenan administration) is mediated by kinins, whereas, in the third phase, more than two hours post administration, neutrophil infiltration, prostaglandin production and release of pro-inflammatory cytokines are involved. In this work, oedema was measured 3.5 h post injection.
κ-Carrageenan and lipoxygenase type I-B from soybean were purchased from Sigma (St. Louis, MO, U.S.A.).
The tested compounds (in water with a few drops of Tween 80) were given i.p. (0.15 mmol/kg) to rats, just after the i.d. injection of 0.1 mL of an aqueous carrageenan solution (1% w/v) in the hind paw of rats. The produced oedema, after 3.5 h, was estimated as paw weight increase.

[3] = system: rat hepatic microsomal membrane lipid peroxidation; test: Fe2+/ascorbate induced lipid peroxidation, TBA reactive material; assay type: biochemical; conditions: for pIC50: after 45 min of incubation, read-out: Inhibition of Lipid Peroxidation IC50
Description: (§1) The antioxidant activity of compounds was estimated by the inhibition of rat hepatic microsomal membrane lipid peroxidation, induced by Fe^+2/ascorbate, estimated as 2-thiobarbituric acid (TBA) reactive material, and by their interaction with the N-centred 1,1-diphenyl-2-picrylhydrazyl (DPPH) stable free radical. […] The percent interaction with DPPH and the IC50 values of compounds 7–9 on rat hepatic microsomal membrane lipid peroxidation, after 45 min of incubation is shown in Table 4.
The peroxidation of heat-inactivated (90°, 90 s) rat liver microsomal fraction was induced by ascorbic acid (0.2 mM) and ferrous sulphate (10 μΜ). The studied compounds, in dimethylsulfoxide, were added at concentrations 1 μM–1 mM. Aliquots were taken from the incubation mixture (37 °C) for 45 min. Lipid peroxidation was assessed spectrophotometrically (535/600 nm) as 2-thiobarbituric acid reactive material. All compounds and solvents were found not to interfere with the assay.

[4] = Interaction with the stable radical DPPH; conditions: DPPH 200 μΜ, after 30 min
Description: as §1
Compounds (in absolute ethanol, final concentrations 25–200 μM) were added to an ethanolic solution of DPPH (final concentration 200 μM) at room temperature (22 ± 2 °C). Absorbance (517 nm) was recorded after 30 min.

[5] = read-out: % Reduction LDL-C (LDL cholesterol)
[6] = read-out: % Reduction TC (total cholesterol)
[7] = read-out: % Reduction TG (triglycerides)

| SMILES | NO Release ([1]; compound 31.25 μM) | NO Release ([1]; compound 62.5 μM) | NO Release ([1]; compound 125 μM) | NO Release ([1]; compound 250 μM) | NO Release ([1]; compound 500 μM) | inhibition in vivo at 150 µmol/kg (hyperlipidaemic rats; [5]) | inhibition in vivo at 150 µmol/kg (hyperlipidaemic rats; [6]) | inhibition in vivo at 150 µmol/kg (hyperlipidaemic rats; [7]) | pIC50 (soybean lipoxygenase 1-B) | inhibition in vivo at 150 µmol/kg [2] | melting point | pIC50 [3] | lag period in time course of lipid peroxidation ([3]; various concentrations, Figure 2) | Percent Interaction with DPPH ([4]; compound 50 μΜ) | Percent Interaction with DPPH ([4]; compound 100 μΜ) | Percent Interaction with DPPH ([4]; compound 200 μΜ) | % Oedema Reduction [2] |
| --- | --- | --- | --- | --- | --- | --- | --- | --- | --- | --- | --- | --- | --- | --- | --- | --- | --- |
| Cc1c(C)c2c(c(C)c1O)CCC(C)(C(=O)OCCO[N+](=O)[O-])O2 (racemic) [Compound 9, (±)-2-(Nitrooxy)ethyl 6-hydroxy-2,5,7,8-tetramethylchroman-2-carboxylate] | 3 μΜ | 10 μΜ | 23 μΜ | 49 μΜ | 93 μΜ | 65% | 55.4% | 30% | 3.92 | 57% | 95 to 97 °C | 5.64 | about 20 min | 55% | 90% | 92% | – |
| COc1ccc2c(c1)c(CC(=O)OCCO[N+](=O)[O-])c(C)n2C(=O)c1ccc(Cl)cc1 [Compound 3, 2-(Nitrooxy)ethyl 2-(1-(4-chlorobenzoyl)-5-methoxy-2-methyl-1H-indol-3-yl)acetate] | 5 μΜ | 13 μΜ | 28 μΜ | 58 μΜ | 102 μΜ | 62.3% | 71.7% | 31.8% | 3.97 | 29% | 83 to 84 °C | – | – | – | – | – | – |
| CC(C)(C)c1cc(/C=C/C(=O)OCCO[N+](=O)[O-])cc(C(C)(C)C)c1O [Compound 7, (E)-2-(Nitrooxy)ethyl 3-(3,5-di-tert-butyl-4-hydroxyphenyl)acrylate] | 2 μΜ | 6.5 μΜ | 17 μΜ | 38 μΜ | 77 μΜ | 60.6% | 66% | 45.7% | 4.36 | 55% | 80 °C | 4.39 | – | 21% | 49% | 87% | 55 ** % |
| CC(C)(C)c1cc(/C=C/C(=O)OCCc2ccc([N+](=O)[O-])cc2)cc(C(C)(C)C)c1O [Compound 8, (E)-4-Nitrophenethyl 3-(3,5-di-tert-butyl-4-hydroxyphenyl)acrylate] | – | – | – | – | – | – | – | – | 4.98 | 51% | 156 to 157 °C | 3.82 | – | 23% | 57% | 88% | 51 ** % |
| Cc1c(C)c2c(c(C)c1O)CCC(C)(C(=O)O)O2 (centres unmarked) [Trolox, 6-hydroxy-2,5,7,8-tetramethylchroman-2-carboxylic acid, reference compound] | – | – | – | – | – | – | – | – | < 3.52 | – | – | 4.60 | – | 38% | 90% | 92% | – |

Source: article PMC6982741, “Design, Synthesis and Study of Nitrogen Monoxide Donors as Potent Hypolipidaemic and Anti-Inflammatory Agents” (Molecules, 2019)
